Results taken from PubChem BioAssay (NCI).
Where “and” joins values, the source holds several entries; their conditions need not be identical. Equal entries are not always repeated.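 Each compound was tested at five concentrations against cells in 96-well plates for 48 hours. At the GI50, growth is halved. TGI marks complete inhibition of growth.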

These compounds were tested on SW-620 colon (assay: NCI-60 cell line screen, 48 h).
For `CCN(CC)c1sc(N(CC)CC)c2c1SSSSS2`, the GI50 was 0.132 µM and the TGI was 1.14 µM. For `O=C(c1cccc(O)c1O)c1cn(Cc2ccc(F)cc2)c2cccc(O)c12`, the GI50 was 5.26 µM and the TGI was 19.9 µM. Compound `Nc1ncc(-c2cnn(CCO)c2)c2scc(-c3ccc(NC(=O)Nc4cccc(F)c4)cc3)c12` has a GI50 of 0.179 µM and a TGI of 3.74 µM. Work on `COc1cc(C2=NN(C(C)=O)C(c3ccc(OC(C)=O)cc3OC(C)=O)O2)c(OC(C)=O)c2ccccc12` (stereo not drawn) yielded a GI50 of 0.608 µM and a TGI of 27.5 µM. With `COC(=O)Nc1nc2ccc(Oc3ccc(NC(=O)Nc4ccccc4)cc3)cc2[nH]1` the GI50 was 0.101 µM and the TGI was over 10.2 µM. `O=C1c2c(Br)sc(Br)c2C(NC(=O)C(F)(F)F)C1O` (stereo not drawn) showed a TGI of 40 µM. `CCN(CC)CCCC(C)Nc1c(C)cnc2cc(Cl)c(C)cc12` (stereo not drawn) showed a GI50 of 10.6 µM and a TGI of 25.7 µM. In the case of `CC(=O)OC1CC(O)C23COC(O)C1(C)C2CC(O)C1(C)C3C(=O)C(O)C2(C)C(c3ccoc3)CC3OC321` (stereo not drawn), the GI50 was 0.0323 µM and the TGI was over 100 µM. Compound `COc1ccc(C(C)c2cc3c(cc2OC)OCO3)cc1` (stereo not drawn) has a TGI of over 100 µM. `CCc1[nH]c(=O)nc(N)c1-c1ccc(N2CCCCC2)c([N+](=O)[O-])c1` showed a TGI of over 100 µM. Compound `COC(=O)C(=O)C(C(=O)C(=O)Nc1ccccc1C(N)=O)c1nc2ccc(Cl)cc2[nH]c1=O` (stereo not drawn) has a TGI of over 100 µM. In the case of `CCC#CC[C@H]1C/C=C2/C(=O)C=C[C@@H]2C/C=C\CCCC(=O)O1`, the GI50 was 0.642 µM and the TGI was 4.15 µM. Compound `CCN(CC)CCN1CC(O)=C(c2nc(-c3ccc(Cl)cc3)cs2)C1=N` has a GI50 of 1.91 µM and a TGI of 3.8 µM. `COc1cc(OC)c(/C=C/C(=O)c2c(OC)cccc2OC)c(OC)c1` gave a GI50 of 0.375 µM and a TGI of over 32.6 µM.

The compounds below were run on T-47D breast (assay: NCI-60 cell line screen, 48 h).
In the case of `CN(C)CCCn1c2c(c3ccccc3c1=O)C(=O)c1ccccc1-2`, the GI50 was 3.01 µM and the TGI was 14.8 µM. Work on `COc1ccc2c(c1)C=C([N+](=O)[O-])C(C1OC(C)(C)OC1C1COC(C)(C)O1)O2` (stereo not drawn) yielded a TGI of 26.6 µM. In the case of `CN(C)CCNC(=O)c1cccc(C(=O)Nc2ccccc2)c1[N+](=O)[O-]`, the TGI was over 100 µM. `CC(=O)OC1Oc2ccccc2-c2oc(=O)c(-c3cc4ccc(N(C)C)cc4oc3=O)cc21` (stereo not drawn) gave a GI50 of 4.34 µM and a TGI of 30.1 µM. In the case of `CCC1(O)C(=O)OCc2c1cc1n(c2=O)Cc2cc3ccc(C=O)cc3nc2-1` (stereo not drawn), the GI50 was 0.412 µM and the TGI was 3.31 µM and 8.72 µM. Compound `COc1ccc2c(c1)C(=O)c1c-2n(CCCn2ccnc2)c(=O)c2ccccc12` has a GI50 of 0.399 µM and a TGI of 5.68 µM. `COc1cc2oc(-c3ccc(O)cc3)cc(=O)c2c(OC)c1OC` showed a TGI of over 100 µM. `Fc1cc(F)c(COc2cc(Cn3cnc4c(Cl)nc(Cl)nc43)ccc2C23CC4CC(CC(C4)C2)C3)cc1F` gave a GI50 of 16.7 µM and a TGI of 45.1 µM. `CC/C=C\C[C@@H]1C/C=C2/C(=O)C=C[C@H]2C/C=C\CCCC(=O)O1` gave a GI50 of 1.6 µM and a TGI of 6.28 µM. Compound `NC(=S)N/N=C/c1ccc(OC(=O)COc2ccc(Cl)cc2)cn1` has a GI50 of 8.62 µM and a TGI of over 100 µM. `O=C(N/N=C/c1cccc(O)c1O)c1ccccc1` showed a GI50 of 2.65 µM and a TGI of over 100 µM. In the case of `c1ccc(C2=NNC3c4ccccc4-c4ccccc4N3C2)cc1` (stereo not drawn), the TGI was 92.4 µM. `CN/N=C(/CCN1CCCC1)CC(c1ccccc1)c1c(O)c2ccccc2oc1=O` (stereo not drawn) was tested, and the TGI was over 100 µM. With `COc1ccc(OC)c(/C=C/C(=O)N/N=C/c2ccc(Cl)cc2)c1` the GI50 was 0.0786 µM and the TGI was over 65.8 µM. `O=C1c2ccccc2-c2c1c1ccccc1c(=O)n2Cc1ccccc1` gave a TGI of over 100 µM. In the case of `CCN(CC)c1sc(N(CC)CC)c2c1SSSSS2`, the GI50 was 3.17 µM and the TGI was over 100 µM. Work on `O=C(c1cccc(O)c1O)c1cn(Cc2ccc(F)cc2)c2cccc(O)c12` yielded a GI50 of 3.16 µM and a TGI of 16.2 µM. `Nc1ncc(-c2cnn(CCO)c2)c2scc(-c3ccc(NC(=O)Nc4cccc(F)c4)cc3)c12` was tested, and the GI50 was 1.32 µM and the TGI was 5.93 µM. In the case of `COc1cc(C2=NN(C(C)=O)C(c3ccc(OC(C)=O)cc3OC(C)=O)O2)c(OC(C)=O)c2ccccc12` (stereo not drawn), the GI50 was 1.12 µM and the TGI was 9.97 µM. In the case of `COC(=O)Nc1nc2ccc(Oc3ccc(NC(=O)Nc4ccccc4)cc3)cc2[nH]1`, the GI50 was 0.131 µM and the TGI was 21.7 µM.
